From article PMC8000724, “Trans-Epithelial Transport, Metabolism, and Biological Activity Assessment of the Multi-Target Lupin Peptide [sequence] (P5) and Its Metabolite [sequence] (P5-Met)” (Nutrients, 2021)

Legend:
[1] = system: LDLR on HepG2 cell surface; assay: In-cell Western (ICW) assay, LDLR localized on HepG2 cell surface; assay type: cell-based, human
Experimental: For the experiments, a total of 3 × 10^4 HepG2 cells/well were seeded in 96-well plates. The following day, cells were washed with PBS and then starved overnight (O/N) in DMEM without FBS and antibiotics. After starvation, HepG2 cells were treated with 4.0 μg/mL PCSK9-WT and 4.0 μg/mL PCSK9 + peptides P5 and/or P5-met (50 µM) and vehicle (H2O) for 2 h at 37 °C under 5% CO2 atmosphere. Subsequently, they were fixed in 4% paraformaldehyde for 20 min at room temperature (RT). Cells were washed 5 times with 100 µL of PBS/well (each wash was for 5 min at RT) and the endogenous peroxides activity quenched adding 3% H2O2 for 20 min at RT. Non-specific sites were blocked with 100 µL/well of 5% bovine serum albumin (BSA, Sigma) in PBS for 1.5 h at RT. LDLR primary antibody solution (1:3000 in 5% BSA in PBS, 25 µL/well) was incubated O/N at +4 °C. Subsequently, the primary antibody solution was discarded and each sample was washed 5 times with 100 µL/well of PBS (each wash was for 5 min at RT). Goat anti-rabbit Ig-HRP secondary antibody solution (Santa Cruz) (1:6000 in 5% BSA in PBS, 50 µL/well), was added and incubated 1 h at RT. The secondary antibody solution was washed 5 times with 100 µL/well of PBS (each wash for 5 min at RT). Freshly prepared TMB substrate (Pierce, 100 µL/well) was added and the plate was incubated at RT until desired color was developed. The reaction was stopped with 2 M H2SO4 and then the absorbance at 450 nm was measured using the microplate reader Synergy H1 (Winooski, VT, USA). After the read, cells were stained by adding 1× Janus Green stain, incubating for 5 min at RT. The dye was removed and the sample washed 5 times with water. Afterward 100 µL 0.5 M HCl for well were added and incubated for 10 min. After 10 seconds shaking, the OD at 595 nm was measured using the microplate reader Synergy H1 (Winooski, VT, USA).

HNF-1α = assay: Western blot, HNF-1α protein level in HepG2 cells; assay type: cell-based, human; details: HepG2, 50 µM, 24 h, mean ± SD
Experimental: The HepG2 cell line was bought from ATCC (HB-8065, ATCC from LGC Standards, Milan, Italy) and was cultured in DMEM high glucose with stable L-glutamine, supplemented with 10% FBS, 100 U/mL penicillin, 100 µg/mL streptomycin (complete growth medium) with incubation at 37 °C under 5% CO2 atmosphere.
Immunoblotting experiments were performed using optimized protocol. A total of 1.5 × 10^5 HepG2 cells/well (24-well plate) were treated with 50 μM of P5 and P5-met for 24 h. After each treatment, the supernatants were collected and stored at −20°C; cells were scraped in 40 µL ice-cold lysis buffer (RIPA buffer + inhibitor cocktail + 1:100 PMSF + 1:100 Na-orthovanadate + 1:1000 β-mercaptoethanol) and transferred in ice-cold microcentrifuge tubes. […] Total proteins were quantified by the Bradford’s method and 50 μg of total proteins loaded on a pre-cast 7.5% Sodium Dodecyl Sulfate-Polyacrylamide (SDS-PAGE) gel at 130 V for 45 min. […] Target proteins, on milk or BSA blocked membrane, were detected by primary antibodies as follows: anti-SREBP-2, anti-LDLR, anti-HMGCoAR, anti-PCSK9, anti HNF1-α and anti-β-actin. Secondary antibodies conjugated with HRP and a chemiluminescent reagent were used to visualize target proteins and their signal was quantified using the Image Lab Software (Biorad, Hercules, CA, USA). […]

H-LPKHSDAD-OH [Peptide P5-met]
LDLR localized on the cellular membranes of HepG2 cells versus the control ([1]; HepG2, 50 µM, without added PCSK9, mean ± SD): 145.2 ±15.2%
LDLR level on HepG2 cell surface restored, co-incubation with PCSK9 ([1]; peptide 50 µM + PCSK9 4 µg/mL, 2 h, % of control, mean ± SD): 90.1 ± 0.1%
Decrease of HNF-1α protein (HNF-1α): 10.8 ± 3.5%
